Data from patent publication US20250345317A1, “New pharmaceutical compounds, methods and uses thereof” (BBIT-THERAPEUTICS, LDA., priority 2020, published 2025).

Key:
[1] = tested on: SKOV-3; experiment: Growth inhibition, SRB assay, SKOV-3; type: cell-based, human; settings: Homo sapiens, SK-OV-3, 48 h
Excerpt: (§1) Table 2 refers to the growth inhibitory effect of COMP, olaparib and cisplatin (CDDP) in a panel of human immortalized breast (T47D, MCF-7, MDA-MB-231, MDA-MB-468, SK-BR-3 and HCC1937), ovarian and endocervical (OCVAR, SKOV-3, […],IGROV-1 and HeLa), pancreatic (PANC-1 and MIAPACA), neuroblastoma (SHSY-5Y), lung (NCI-H460), prostate (VCaP) melanoma (A375 and SK-MEL-5) and glioblastoma (SF-208) cancer cells, immortalized normal MCF10a and HFF1 human cells, and patient-derived ovarian (PD-OVCA #1, #9, #41, #49 and #62) cancer cells. […] Data are mean±SEM (n=5).
(§2) In an embodiment, IC50 values were determined by Sulforhodamine B (SRB) or MTS [3-(4,5-dimethylthiazol-2-yl)-5-(3-carboxymethoxyphenyl)-2-(4-sulfophenyl)-2H-tetrazolium] assay in immortalized and PD-OVCA cells, respectively. Cancer cells were plated in 96-well plates and incubated for 24 hours. Cells were then exposed to serial dilutions of compounds for 48 hours. The solvent DMSO corresponding to the maximum concentration used in these assays (0.025%) was included as control. Results are the mean±S.E.M. of 3-5 independent experiments.

[2] = tested on: PANC-1; experiment: Growth inhibition, SRB assay, PANC-1; type: cell-based; settings: Homo sapiens, PANC-1, wild-type BRCA1/2, 48 hours
Excerpt: as §1, §2

[3] = tested on: NCI-H460; experiment: Growth inhibition, SRB assay, NCI-H460; type: cell-based; settings: Homo sapiens, NCI-H460, wild-type BRCA1/2, 48 hours
Excerpt: as §1, §2

[4] = tested on: SF-208; experiment: Growth inhibition, SRB assay, SF-208; type: cell-based; settings: Homo sapiens, SF-208, wild-type BRCA1/2, 48 hours
Excerpt: as §1, §2

[5] = tested on: MDA-MB-468; experiment: Growth inhibition, SRB assay, MDA-MB-468; type: cell-based, human; settings: Homo sapiens, MDA-MB-468, 48 h
Excerpt: as §1, §2

[6] = tested on: HCC1937 (5382insC); experiment: Growth inhibition, SRB assay, HCC1937; type: cell-based, human; settings: Homo sapiens, HCC1937, 48 h
Excerpt: as §1, §2

[7] = tested on: IGROV-1 (mutBRCA1 280delA; mutBRCA2 3320del1); experiment: Growth inhibition, SRB assay, IGROV-1; type: cell-based, human; settings: Homo sapiens, IGROV-1, 48 h
Excerpt: as §1, §2

[8] = tested on: MCF10a; experiment: Growth inhibition, SRB assay, normal MCF10a cells; type: cell-based, human; settings: Homo sapiens, MCF-10A, 48 hours
Excerpt: as §1, §2

[9] = tested on: PD-OVCA#1 (Lack of exon 17 in BRCA1); experiment: Growth inhibition, MTS assay, PD-OVCA#1; type: cell-based, human; settings: Homo sapiens, PD-OVCA#1, pathogenic mutant BRCA1/2, 48 hours
Excerpt: as §1, §2

[10] = tested on: PD-OVCA#49; experiment: Growth inhibition, MTS assay, PD-OVCA#49; type: cell-based, human; settings: Homo sapiens, PD-OVCA#49, wild-type BRCA1/2, 48 hours
Excerpt: as §1, §2

[11] = tested on: ovarian and endocervical cancer cells (OCVAR, SKOV-3, SK-BR-3, IGROV-1 and HeLa); experiment: Growth inhibition, panel of ovarian and endocervical cancer cells; type: cell-based; settings: Homo sapiens, range over OCVAR, 48 hours
Description: In an embodiment, the activity of COMP compound was tested in an array of human normal and cancer cell lines (Table 2, FIG. 2).
as §1, §2

[12] = tested on: HCC1937 mammospheres; experiment: 3D-mammosphere model; type: cell-based, human
Description: FIG. 5 illustrates the effect of COMP on (A-B) HCC1937 mammosphere formation after 72 hours of treatment with COMP; treatment was performed at seeding time of HCC1937 cells or at (C-D) three-day-old HCC1937 mammospheres for up to 11 days of treatment. FIG. 5A and FIG. 5C are representative images (scale bar=50 μm, 100× magnification).

[13] = tested on: key proteins involved in homologous recombination, proliferation and chemoresistance; experiment: Protein expression by western blot; type: cell-based, human; settings: 12 μM, 48 hours
Description: FIG. 6 illustrates the effect of 12 μM COMP on the (A-B) expression of key proteins involved in homologous recombination, proliferation and chemoresistance in triple-negative breast cancer and ovarian cancer cells after 48 hours of treatment.
(§3) In an embodiment, the COMP compound modulated the expression of key proteins involved in homologous DNA repair, proliferation, chemoresistance, induced cell cycle arrest, apoptosis and ROS generation, in triple-negative breast cancer and ovarian cancer cells.

[14] = tested on: triple-negative breast cancer and ovarian cancer cells; experiment: Cell cycle progression by flow cytometry (propidium iodide); type: cell-based, human; settings: MDA-MB-231 cells, 6 and 12 μM, 48 hours
Description: (§4) Cell cycle phases were analysed by flow cytometry using propidium iodide (PI) and quantified using the FlowJo software. Apoptosis and ROS were analysed by flow cytometry using FITC-Annexin V/PI and 2′,7′-dichlorodihydrofluorescein diacetate (H2DCFDA) respectively.
as §3

[15] = tested on: triple-negative breast cancer and ovarian cancer cells; experiment: Apoptosis by flow cytometry (FITC-Annexin V/PI); type: cell-based, human; settings: 6 and 12 μM, 48 hours
Description: as §4

[16] = tested on: MDA-MB-231, HCC1937 and IGROV-1 cells; experiment: DNA damage by comet assay; type: cell-based, human; settings: 6 μM and 12 μM, 48 hours
Description: FIG. 8 illustrates the effect of 6 and 12 μM COMP on triple-negative breast cancer and ovarian cancer cells' DNA damage after 48 hours of treatment, measured by comet assay. FIG. 8A are representative images (scale bar=20 μm; 200× magnification).
In an embodiment, COMP decreased homologous recombination DNA repair and disrupted the BRCA1-BARD1 interaction.

[17] = tested on: RAD51; experiment: RAD51 foci formation by immunofluorescence; type: cell-based, human; settings: 12 μM, 48 hours
Description: FIG. 10 illustrates the effect of 12 μM COMP on (A) γH2AX expression levels and on (FIG. 10B) γH2AX and RAD51 foci formation, and BRCA1 foci formation and cellular localization after 48 hours of treatment. […] FIG. 10B are representative images generated using Fiji software (scale bar=100 μm; 400 × magnification).

For CC[C@H]1CN(C)C2Cc3c([nH]c4ccccc34)/C(=N/Nc3ccc(Br)cn3)C[C@@H]1[C@@H]2C(=O)OC [COMP, methyl (5R,6S,14S,E)-8-(2-(5-bromopyridin-2-yl) hydrazineylidene)-5-ethyl-3-methyl-2,3,4,5,6,7,8,9-octahydro-1H-2,6-methanoazecino [5,4-b]indole-14-carboxylate], the IC50 ([1]; SKOV-3, wild-type BRCA1/2, 48 hours) was 8.9 ± 2.5 µM, the IC50 ([1]; Skov-3, BRCA1 wild-type, 48 hours (second Table 2)) was 8.9 µM and the IC50 [2] was 4.4 ± 0.9 µM. The IC50 [3] was 15.5 ± 1.5 µM, the IC50 [4] was 12.5 ± 0.45 µM and the IC50 ([5]; MDA-MB-468, BRCA1 loss of heterozigoty, 48 hours) was 4.4 ± 0.8 µM. The IC50 ([5]; MDA-MB-468, BRCA1 loss of heterozygosity, 48 hours (second Table 2)) was 4.4 µM, the IC50 ([6]; HCC1937, BRCA1 mutant, 48 hours (second Table 2)) was 5.2 µM and the IC50 ([6]; HCC1937, mutant BRCA1, 48 hours) was 5.2 ± 1.3 µM. It also gave an IC50 ([7]; IGROV-1, mutant BRCA1/2, 48 hours) of 4.6 ± 1.5 µM, an IC50 ([7]; Igrov-1, BRCA1 mutant, 48 hours (second Table 2)) of 4.6 µM and an IC50 [8] of 29.5 µM. The IC50 [9] was 2.7 ± 0.6 µM, the IC50 [10] was 15.1 ± 1.4 µM and the IC50 [11] was 4.6 to 13.9 µM. For the same molecule, the “mammosphere growth in three-day old spheroids” value ([12]; 6 μM and 12 μM, up to 11 days) was “markedly reduced”, the “mammosphere (spheroids) formation” value ([12]; 6 μM, added upon seeding of HCC1937 cells, 72 hours) was “complete abolishment of spheroids formation” and the “mammosphere integrity in three-day old spheroids” value ([12]; 12 μM, up to 11 days) was “triggering mammosphere disintegration”. For the same molecule, the “PUMA and cleaved PARP protein expression levels” value [13] was “increase”, the “expression levels of DNA damage repair proteins (BRCA1, BRCA2, RAD51, RAD52, FANCD2, pATM, pATR) and resistance-related proteins (CDK2, survivin, BARD1)” value [13] was “significantly decreased” and the “expression of p21” value [13] was “increased expression of p21”. For the same molecule, the “cell cycle arrest phase” value [14] was “cell cycle arrest at G0/G1-”, the “apoptotic cell death (Annexin-V-positive cells)” value [15] was “significant increase in apoptotic cell death” and the “percentage of comet-positive cells (tail DNA, tail moment)” value [16] was “significantly increased”. The RAD51-foci formation [17] was “pronounced reduction”.
